Assay results reported in ChEMBL document CHEMBL1201862, “PubChem BioAssay data set” (2004).
Calls of active or inactive are those of the source.

Columns and labels:
[1] = target: DNA dC->dU-editing enzyme APOBEC-3G (Homo sapiens, UniProt Q9HC16); experiment: Dose Response confirmation of small molecule APOBEC3G DNA Deaminase Inhibitors via a fluorescence-based single-stranded DNA deaminase assay. [Related pubchem assays (depositor defined):AID493012, AID493028]; format: functional
[2] = target: T1, Rac GTPase-activating protein 1 (Homo sapiens, UniProt Q9H0H5); experiment: blockers of MgcRacGAP-driven Rac1 GTP hydrolysis – biochemical, ADP Hunter fluorescence, primary and confirmatory, confirmation (AID 624330); format: functional
T1 sequence (Q9H0H5 whole entry): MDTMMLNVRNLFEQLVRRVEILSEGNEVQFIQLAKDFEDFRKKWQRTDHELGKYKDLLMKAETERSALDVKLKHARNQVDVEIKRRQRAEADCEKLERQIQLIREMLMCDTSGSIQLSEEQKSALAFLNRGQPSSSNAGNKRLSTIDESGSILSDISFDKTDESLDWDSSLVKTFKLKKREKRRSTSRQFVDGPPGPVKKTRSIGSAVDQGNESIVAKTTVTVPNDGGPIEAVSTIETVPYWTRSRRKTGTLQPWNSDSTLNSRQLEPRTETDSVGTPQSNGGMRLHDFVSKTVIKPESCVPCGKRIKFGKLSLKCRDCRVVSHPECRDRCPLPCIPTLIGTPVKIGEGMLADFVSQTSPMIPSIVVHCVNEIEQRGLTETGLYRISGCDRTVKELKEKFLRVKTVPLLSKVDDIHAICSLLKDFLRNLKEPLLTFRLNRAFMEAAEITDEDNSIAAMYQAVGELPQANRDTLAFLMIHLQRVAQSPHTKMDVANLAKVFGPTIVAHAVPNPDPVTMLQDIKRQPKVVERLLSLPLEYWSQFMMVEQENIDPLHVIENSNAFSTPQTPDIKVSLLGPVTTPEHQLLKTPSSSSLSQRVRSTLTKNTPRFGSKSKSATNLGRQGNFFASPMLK

cells [3] = format: functional, cell-based
cells [4] = format: functional, cell-based; remark: listed apart in the source
[5] = HEK-293T cell viability reduction – luminescence, B-cell screen hits, cytotoxicity control for BCR NF-kB inhibitor project, dose response (AID 489021); format: functional, cell-based;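 further: HEK-293T cells carrying an NF-kB luciferase reporter; cells exposed to compound for about 14 hours before viability readout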
[6] = target: T2, Microphthalmia-associated transcription factor (Homo sapiens, UniProt O75030); experiment: reducers of TRPM1 reporter luminescence, concentration series – cell-based, SK-MEL-5, cherry-picked, set 3, MITF inhibitor project, dose response (AID 493073); format: functional;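 further: SK-MEL-5 melanoma cells with luciferase driven by the MITF target TRPM1 promoter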
T2 sequence (O75030 whole entry): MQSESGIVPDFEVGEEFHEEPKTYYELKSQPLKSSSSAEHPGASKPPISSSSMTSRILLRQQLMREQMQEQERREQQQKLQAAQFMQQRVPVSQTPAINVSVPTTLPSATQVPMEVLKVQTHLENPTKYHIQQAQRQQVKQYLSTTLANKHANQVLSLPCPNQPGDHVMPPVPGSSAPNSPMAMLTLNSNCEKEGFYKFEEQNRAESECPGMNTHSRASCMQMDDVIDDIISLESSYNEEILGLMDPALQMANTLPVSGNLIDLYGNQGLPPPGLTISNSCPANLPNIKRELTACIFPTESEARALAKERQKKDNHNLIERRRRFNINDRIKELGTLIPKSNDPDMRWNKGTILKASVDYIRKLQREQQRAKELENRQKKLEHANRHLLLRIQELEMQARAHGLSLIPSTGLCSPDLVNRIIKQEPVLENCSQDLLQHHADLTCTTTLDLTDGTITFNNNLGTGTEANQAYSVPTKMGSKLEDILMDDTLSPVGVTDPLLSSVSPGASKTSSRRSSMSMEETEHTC

Large T antigen = Large T antigen (Simian virus 40, UniProt P03070); format: functional, Betapolyomavirus macacae;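 further: Confirmatory-stage PubChem screen for compounds that inhibit SV40 T antigen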
[7] = target: T3, Endoribonuclease toxin MazF (Escherichia coli K-12, UniProt P0AE70); experiment: substrate-only fluorescence increase artefacts – biochemical, single-stranded RNase substrate, counter-screen for MazEF activator project, dose response (AID 588502); format: functional
T3 sequence (P0AE70 whole entry): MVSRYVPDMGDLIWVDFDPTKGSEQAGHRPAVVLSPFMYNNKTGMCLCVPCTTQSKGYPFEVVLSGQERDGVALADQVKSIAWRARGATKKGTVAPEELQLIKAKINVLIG

[8] = target: T3, Endoribonuclease toxin MazF; experiment: activation of MazEF endoribonuclease cleavage – biochemical, fluorescence, single-stranded RNA substrate, uHTS hits, dose response (AID 588481); format: functional
Cytochrome P450 2D6 = Cytochrome P450 2D6 (Homo sapiens, UniProt P10635);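 further: CYP2D6 member of a cytochrome P450 panel assay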
[9] = blockers of bursicon-stimulated LGR2 cAMP reporter – cell-based, HEK293, CRE-luciferase reporter, cherry pick, set 2, dose response (AID 743343); format: functional;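 further: transfected cells were stimulated with diluted bursicon conditioned medium after compound addition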
Cytochrome P450 2C9 = Cytochrome P450 2C9 (Homo sapiens, UniProt P11712)
[10] = toxicity toward HepG2 liver cells – cell-based, plate reader, cherry-pick, antagonist series, cytotoxicity control, dose response (AID 743416); format: functional
[11] = blockade of melanocortin 4 receptor signaling – cell-based, plate reader, cherry pick, counter-screen for LGR2 antagonist project, dose response (AID 743444); format: functional;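 further: transfected HEK 293 cells stimulated with alpha-MSH peptide; potency of inhibitors of the alpha-MSH evoked signal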
[12] = target: T4, RNA-binding protein pos-1 (Caenorhabditis elegans, UniProt G5EF15); experiment: disruptors of C. elegans POS-1 RNA interaction – biochemical, fluorescence polarization, dose response (AID 1964);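 further: purified POS-1 fused to maltose binding protein made in E. coli; potency of compounds blocking POS-1 binding to fluorescent RNA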
T4 sequence (G5EF15 whole entry): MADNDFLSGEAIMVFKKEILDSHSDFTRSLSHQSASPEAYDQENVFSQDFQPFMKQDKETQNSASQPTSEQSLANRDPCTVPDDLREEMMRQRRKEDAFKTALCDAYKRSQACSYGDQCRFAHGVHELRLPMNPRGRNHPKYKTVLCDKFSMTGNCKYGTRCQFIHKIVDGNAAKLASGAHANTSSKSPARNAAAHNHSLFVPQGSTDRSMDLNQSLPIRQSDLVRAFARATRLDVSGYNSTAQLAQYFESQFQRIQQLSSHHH

[13] = target: T5, Zinc finger protein mex-5 (Caenorhabditis elegans, UniProt Q9XUB2); experiment: potency of MEX-5 RNA-binding blockers – biochemical, C. elegans, fluorescence polarization, dose response (AID 1960)
T5 sequence (Q9XUB2 whole entry): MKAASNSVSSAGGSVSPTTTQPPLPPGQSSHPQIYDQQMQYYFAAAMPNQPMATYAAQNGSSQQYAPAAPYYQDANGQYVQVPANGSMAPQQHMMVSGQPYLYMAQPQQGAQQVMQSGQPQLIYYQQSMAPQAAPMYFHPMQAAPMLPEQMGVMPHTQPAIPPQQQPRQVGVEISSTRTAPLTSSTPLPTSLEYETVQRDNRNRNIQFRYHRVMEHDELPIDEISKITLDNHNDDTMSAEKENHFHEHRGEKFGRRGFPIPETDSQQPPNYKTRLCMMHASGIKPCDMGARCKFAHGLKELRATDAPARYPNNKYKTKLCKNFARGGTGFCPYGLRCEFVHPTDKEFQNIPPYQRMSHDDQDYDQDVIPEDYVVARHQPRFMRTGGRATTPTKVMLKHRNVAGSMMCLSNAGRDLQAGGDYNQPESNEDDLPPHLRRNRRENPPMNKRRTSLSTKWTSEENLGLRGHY

[14] = target: Glyceraldehyde-3-phosphate dehydrogenase (Homo sapiens, UniProt P04406)
[15] = target: FAD-linked sulfhydryl oxidase ALR (Homo sapiens, UniProt P55789); experiment: ALR-catalysed DTT oxidation blockers – biochemical, H2O2 detection, luminescence, cherry-pick, dose response (AID 493248)
cells [16] = format: functional
Genome polyprotein = Genome polyprotein (dengue virus type 2, UniProt P29990); experiment: flavivirus cap methylation enzyme inhibition – biochemical, confirmation dose response, primary screen (AID 588689); format: functional
[17] = Luminescence Cell-Based Dose Confirmation HTS to Identify Inhibitors of Platelet Dense Granule Release. [Related pubchem assays: 1663 (Primary HTS), 1678 (Summary of Project)]; format: functional
[18] = target: Luciferin 4-monooxygenase (Photinus pyralis, UniProt P08659); experiment: inhibition of purified Photinus pyralis luciferase – biochemical, luminescence, dose response (AID 1891)
[19] = viability of uninfected HEp-2 cells – cell-based, HTS, cytotoxicity control for RSV inhibitor project, dose response (AID 2410); format: functional; conditions: human respiratory syncytial virus
[20] = NIH3T3 cell viability loss – ATP luminescence, mouse fibroblasts, counter-screen, dose response (AID 2010); format: functional, cell-based;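 further: cells exposed to compound for about 90 hours before reading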
[21] = Trypanosoma cruzi growth suppression in host cells – NIH3T3 host cells, beta-gal luminescence, confirmation (AID 2044); format: functional, cell-based;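 further: intracellular parasites grown in NIH/3T3 mouse fibroblasts as host cells; luminescent beta-galactosidase reporter signal from transgenic T. cruzi replicating inside host cells; inhibitors lower the luminescence signal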

Chain of Large T antigen (P03070 whole entry): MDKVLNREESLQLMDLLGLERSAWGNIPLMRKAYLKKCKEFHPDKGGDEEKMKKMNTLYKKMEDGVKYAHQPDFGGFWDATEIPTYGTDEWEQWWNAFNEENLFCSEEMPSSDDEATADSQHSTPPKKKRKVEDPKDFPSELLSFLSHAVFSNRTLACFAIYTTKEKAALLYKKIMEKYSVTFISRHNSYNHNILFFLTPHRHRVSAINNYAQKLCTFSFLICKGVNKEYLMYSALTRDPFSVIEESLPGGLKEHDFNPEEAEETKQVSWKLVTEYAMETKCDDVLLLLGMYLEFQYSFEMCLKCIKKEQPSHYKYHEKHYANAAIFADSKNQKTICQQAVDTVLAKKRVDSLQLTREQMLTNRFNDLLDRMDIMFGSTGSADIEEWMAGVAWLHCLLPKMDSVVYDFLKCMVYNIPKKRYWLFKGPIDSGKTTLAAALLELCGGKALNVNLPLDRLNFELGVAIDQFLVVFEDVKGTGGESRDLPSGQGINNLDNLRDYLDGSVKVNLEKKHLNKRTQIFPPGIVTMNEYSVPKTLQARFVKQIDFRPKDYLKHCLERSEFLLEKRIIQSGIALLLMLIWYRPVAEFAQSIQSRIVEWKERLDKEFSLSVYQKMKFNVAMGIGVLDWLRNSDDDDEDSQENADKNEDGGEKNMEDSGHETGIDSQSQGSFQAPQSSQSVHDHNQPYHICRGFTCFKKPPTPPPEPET
Chain of DNA dC->dU-editing enzyme APOBEC-3G (Q9HC16 whole entry): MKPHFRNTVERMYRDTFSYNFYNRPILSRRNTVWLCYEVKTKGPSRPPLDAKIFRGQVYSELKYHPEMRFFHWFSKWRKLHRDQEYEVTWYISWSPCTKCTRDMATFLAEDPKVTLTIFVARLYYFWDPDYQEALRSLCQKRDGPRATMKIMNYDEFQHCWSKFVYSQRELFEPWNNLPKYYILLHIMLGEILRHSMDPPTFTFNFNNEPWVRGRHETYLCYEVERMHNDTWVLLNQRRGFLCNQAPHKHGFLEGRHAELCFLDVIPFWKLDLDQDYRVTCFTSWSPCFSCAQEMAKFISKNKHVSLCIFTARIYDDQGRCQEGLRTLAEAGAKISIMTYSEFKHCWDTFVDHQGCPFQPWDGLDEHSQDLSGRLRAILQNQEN
Chain of FAD-linked sulfhydryl oxidase ALR (P55789 whole entry): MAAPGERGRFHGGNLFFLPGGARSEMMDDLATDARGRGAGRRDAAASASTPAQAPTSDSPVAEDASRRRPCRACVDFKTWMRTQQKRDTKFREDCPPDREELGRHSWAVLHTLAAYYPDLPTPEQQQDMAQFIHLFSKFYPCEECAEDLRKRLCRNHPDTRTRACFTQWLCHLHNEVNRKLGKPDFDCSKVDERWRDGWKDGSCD
Chain of Cytochrome P450 2D6 (P10635 whole entry): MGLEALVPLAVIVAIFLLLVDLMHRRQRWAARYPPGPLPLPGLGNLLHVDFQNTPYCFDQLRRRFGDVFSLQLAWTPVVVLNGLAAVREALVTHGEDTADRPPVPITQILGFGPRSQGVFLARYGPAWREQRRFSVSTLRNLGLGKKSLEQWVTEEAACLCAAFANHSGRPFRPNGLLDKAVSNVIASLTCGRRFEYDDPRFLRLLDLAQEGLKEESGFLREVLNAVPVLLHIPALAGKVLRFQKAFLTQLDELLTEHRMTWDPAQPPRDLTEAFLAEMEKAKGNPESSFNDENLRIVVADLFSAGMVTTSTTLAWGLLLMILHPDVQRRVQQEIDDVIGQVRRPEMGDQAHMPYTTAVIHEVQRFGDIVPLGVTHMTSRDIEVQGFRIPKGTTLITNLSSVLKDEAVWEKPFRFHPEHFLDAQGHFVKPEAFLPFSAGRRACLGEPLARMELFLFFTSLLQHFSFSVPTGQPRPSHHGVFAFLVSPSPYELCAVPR
Chain of Luciferin 4-monooxygenase (P08659 whole entry): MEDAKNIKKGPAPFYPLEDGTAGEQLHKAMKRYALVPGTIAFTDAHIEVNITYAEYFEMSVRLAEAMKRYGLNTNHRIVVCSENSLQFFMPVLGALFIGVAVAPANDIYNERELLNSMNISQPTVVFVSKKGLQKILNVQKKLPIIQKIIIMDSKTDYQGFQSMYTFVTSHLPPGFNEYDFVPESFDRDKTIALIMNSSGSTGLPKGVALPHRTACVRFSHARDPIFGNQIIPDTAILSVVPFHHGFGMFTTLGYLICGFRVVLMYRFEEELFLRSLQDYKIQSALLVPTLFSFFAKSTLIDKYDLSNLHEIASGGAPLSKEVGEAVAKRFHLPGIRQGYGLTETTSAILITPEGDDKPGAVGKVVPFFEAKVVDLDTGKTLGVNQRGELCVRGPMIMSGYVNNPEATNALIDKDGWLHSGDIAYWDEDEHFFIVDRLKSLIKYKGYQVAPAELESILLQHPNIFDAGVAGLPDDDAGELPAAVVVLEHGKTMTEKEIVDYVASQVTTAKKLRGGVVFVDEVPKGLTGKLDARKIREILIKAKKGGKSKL
Chain of Glyceraldehyde-3-phosphate dehydrogenase (P04406 whole entry): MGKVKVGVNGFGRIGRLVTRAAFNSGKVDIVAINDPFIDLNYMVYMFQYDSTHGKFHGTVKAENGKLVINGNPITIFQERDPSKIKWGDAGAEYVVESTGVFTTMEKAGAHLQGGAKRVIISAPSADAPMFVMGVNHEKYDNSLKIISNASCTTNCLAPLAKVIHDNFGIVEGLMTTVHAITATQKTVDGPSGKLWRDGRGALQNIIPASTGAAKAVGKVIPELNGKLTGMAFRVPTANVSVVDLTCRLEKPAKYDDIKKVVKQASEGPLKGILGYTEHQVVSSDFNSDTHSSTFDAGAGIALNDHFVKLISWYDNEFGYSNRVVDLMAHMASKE
Chain of Cytochrome P450 2C9 (P11712 whole entry): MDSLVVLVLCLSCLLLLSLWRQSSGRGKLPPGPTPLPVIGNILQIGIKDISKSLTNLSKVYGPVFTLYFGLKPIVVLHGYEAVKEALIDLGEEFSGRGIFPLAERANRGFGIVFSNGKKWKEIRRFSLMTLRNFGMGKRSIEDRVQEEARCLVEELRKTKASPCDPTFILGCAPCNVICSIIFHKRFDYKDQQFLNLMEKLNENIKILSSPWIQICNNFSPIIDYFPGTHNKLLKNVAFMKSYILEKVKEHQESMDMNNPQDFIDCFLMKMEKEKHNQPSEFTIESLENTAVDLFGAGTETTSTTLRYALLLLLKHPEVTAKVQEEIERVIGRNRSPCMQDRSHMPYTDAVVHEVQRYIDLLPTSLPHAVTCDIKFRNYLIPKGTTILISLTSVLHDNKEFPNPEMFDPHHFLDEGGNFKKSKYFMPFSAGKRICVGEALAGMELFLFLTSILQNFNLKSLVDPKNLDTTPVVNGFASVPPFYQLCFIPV
Chain of Genome polyprotein (P29990 2492-3391 limits assumed): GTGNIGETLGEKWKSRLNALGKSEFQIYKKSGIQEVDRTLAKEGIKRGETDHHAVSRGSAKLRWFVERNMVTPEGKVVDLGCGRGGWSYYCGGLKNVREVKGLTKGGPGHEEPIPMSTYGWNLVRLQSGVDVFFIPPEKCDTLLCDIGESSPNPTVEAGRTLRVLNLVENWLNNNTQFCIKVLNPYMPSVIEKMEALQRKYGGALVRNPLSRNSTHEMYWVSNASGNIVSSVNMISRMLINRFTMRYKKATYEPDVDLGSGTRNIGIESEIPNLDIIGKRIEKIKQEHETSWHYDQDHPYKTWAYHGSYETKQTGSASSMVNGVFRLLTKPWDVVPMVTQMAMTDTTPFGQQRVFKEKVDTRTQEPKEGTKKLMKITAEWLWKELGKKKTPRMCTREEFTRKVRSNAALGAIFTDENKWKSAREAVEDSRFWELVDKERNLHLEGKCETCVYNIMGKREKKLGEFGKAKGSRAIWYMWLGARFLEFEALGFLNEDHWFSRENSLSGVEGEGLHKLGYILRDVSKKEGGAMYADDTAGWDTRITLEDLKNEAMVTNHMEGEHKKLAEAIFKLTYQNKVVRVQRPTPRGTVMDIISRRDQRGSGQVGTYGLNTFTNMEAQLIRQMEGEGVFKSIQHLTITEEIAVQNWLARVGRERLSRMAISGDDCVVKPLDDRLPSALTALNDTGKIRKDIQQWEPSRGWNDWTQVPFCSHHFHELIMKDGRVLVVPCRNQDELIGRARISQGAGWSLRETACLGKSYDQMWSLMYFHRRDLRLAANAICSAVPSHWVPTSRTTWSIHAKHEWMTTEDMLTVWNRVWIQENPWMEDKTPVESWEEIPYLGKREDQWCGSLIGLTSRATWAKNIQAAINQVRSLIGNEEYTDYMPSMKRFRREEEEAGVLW

Nc1ccccc1SSc1ccccc1N
IC50 [1]: 25.8 µM (active) | IC50 [2]: 86.1 µM (active)

C=C(C)CNC(=O)c1ccc2nc(Cc3ccc(OC)cc3)oc2c1
EC50 (cells [3]): > 350 µM (not active) | EC50 (cells [4]): 15.1 µM (active)

COC(=O)Cc1sc(-c2ccccn2)nc1-c1ccccc1
IC50 [1]: 41.1 µM (active)

Cc1cc2ccccn2c1C(=O)c1ccc(NN)c([N+](=O)[O-])c1
IC50 [5]: > 80 µM (inactive)

COCCCNC(=O)COc1ccc(-c2nccc(-c3ccccn3)n2)cc1
IC50 [5]: > 80 µM (inactive)

CCC1CCc2sc(C(=O)O)cc2C1 (configuration not stated)
EC50 (cells [3]): > 350 µM (not active) | EC50 (cells [4]): > 350 µM (not active)

CN(C)S(=O)(=O)c1ccc(NC(=O)N2CCN(c3ccccc3)CC2)cc1
IC50 [5]: > 80 µM (inactive)

O=C1NC(=O)N(Cc2ccccc2Cl)C(=O)/C1=C/c1cccs1
AC50 [6]: 29.7 µM (active)

Cc1cc(O)nc2c(C)cc(S(=O)(=O)N3CCCCC3)cc12
IC50 [5]: > 80 µM (inactive)

C[C@@H]1O[C@@H](OC2C(O)C(OCCc3ccc(O)c(O)c3)OC(CO)C2OC(=O)/C=C/c2ccc(O)c(O)c2)[C@H](O)[C@H](O)[C@H]1O (some centres not stated)
IC50 (Large T antigen): 3.26 µM (active)

O=C(CCCCl)NC1=NN(c2ccccc2)C(=O)C1
IC50 (Large T antigen): 30.9 µM (active)

CCN(CC)S(=O)(=O)c1ccc(C(=O)/C=C/c2ccc(-c3ccc([N+](=O)[O-])cc3)o2)cc1
EC50 [7]: > 99 µM (inactive) | EC50 [8]: > 99 µM (inactive)

COc1ccc2c(C)cc3n[nH]c(=S)n3c2c1
IC50 [1]: > 100 µM (inactive) | IC50 [2]: 20.6 µM (active)

COc1cccc(-c2cc(C(=O)Nc3cccc(O)c3)no2)c1
AC50 (Cytochrome P450 2D6): 22.4 µM (inconclusive) | AC50 [9]: 7.52 µM (active) | AC50 (Cytochrome P450 2C9): inconclusive | AC50 [10]: 42.3 µM (active) | AC50 [11]: 8.73 µM (active)

c1ccc(COc2ccc(OCCCN3CCCC3)cc2)cc1
AC50 [9]: 0.751 µM (active) | AC50 [10]: > 52 µM (inactive) | AC50 [11]: 1.19 µM (active)

CC1(C)O[C@@H]2[C@H](O1)[C@@H](COS(=O)(=O)O)O[C@H]2n1c(S)nc2c(O)nc(N)nc21
IC50 [1]: 34.8 µM (active) | IC50 [2]: 53.7 µM (active)

COCCN1C(=O)/C(=C/c2c(OC)cc(OC)cc2OC)C(=O)N(c2ccccc2)C1=O
EC50 [12]: 131 µM (active) | EC50 [13]: > 300 µM (not active)

COCCCN=C(S)NN=C(S)Nc1ccc(F)cc1F
IC50 [1]: 10.1 µM (active)

COc1cccc(N2C(=O)C(Cl)=C(N3CCN(c4ccccc4)CC3)C2=O)c1
IC50 [14]: > 50 µM (inconclusive)

CCOC(=O)Cc1nn(CC)c(=O)c2ccccc12
EC50 (cells [3]): > 350 µM (not active) | EC50 (cells [4]): > 350 µM (not active)

Cc1nnc2c3ccccc3c(-c3ccccc3)nn12
IC50 [5]: > 80 µM (inactive)

Nc1nnc(S)n1-c1ccc(Cl)cc1
IC50 [1]: 23.7 µM (active)

Cc1ccc(Sc2ccc(C=C3C(=O)N(C)C(=O)N(C)C3=O)o2)cc1
EC50 [12]: > 300 µM (not active) | EC50 [13]: 25.5 µM (inconclusive) | AC50 [15]: 0.25 µM (active) | IC50 (cells [16]): 21.4 µM (active) | IC50 (Genome polyprotein): 14.5 µM (active)

O=C(Nc1ccccc1)c1ccc(NCCc2ccccc2)c([N+](=O)[O-])c1
EC50 [7]: 84.3 µM (inactive) | EC50 [8]: > 99 µM (inactive)

CC(C)c1nnc(NC(=O)CCC(=O)NC2CC2)s1
EC50 [17]: > 112 µM (not active) | EC50 (cells [3]): > 350 µM (not active) | EC50 (cells [4]): > 350 µM (not active) | EC50 [18]: > 112 µM (not active)

FC(F)(F)c1ccc(CSc2ccccn2)cc1
EC50 (cells [3]): > 350 µM (not active) | EC50 (cells [4]): 70 µM (active)

CCn1c(CN2CCN(c3ccc(Cl)cc3)CC2)nc2ccccc21
IC50 [5]: > 80 µM (inactive)

CN1CCN(c2ccc(NC(=O)c3ccc([N+](=O)[O-])o3)cc2Cl)CC1
AC50 [6]: 9.02 µM (active)

CC1=CC2=C(C=O)C(=O)C(C)(O)C(O)C2=CO1 (configuration not stated)
EC50 [7]: > 99 µM (inactive) | EC50 [8]: > 99 µM (inactive)

CCOC(=O)/C(C#N)=N\Nc1cc(Cl)ccc1OC
EC50 [7]: 44.1 µM (inactive) | EC50 [8]: > 99 µM (inactive)

O=[N+]([O-])c1ccc(N/N=C/c2ccccc2)c(F)c1
EC50 [7]: 27.2 µM (inactive) | EC50 [8]: > 99 µM (inactive) | CC50 [19]: > 50 µM (active)

COc1cc(/C=c2\sc3n(c2=O)CCCN=3)ccc1O
AC50 [15]: 4.19 µM (active) | IC50 [2]: 15.6 µM (active) | IC50 (Large T antigen): 16.2 µM (active)

COc1cc(/C=N/NC(=O)c2ccccc2)ccc1O
IC50 [2]: 29.9 µM (active) | IC50 (Large T antigen): 10.5 µM (active)

NS(=O)(=O)c1ccc(N/N=C/c2ccc[nH]2)c([N+](=O)[O-])c1
IC50 (Large T antigen): 65.5 µM (active)

COc1cc(/C=N/Nc2nc(Nc3ccccc3)nc(N3CCOCC3)n2)ccc1OC(=O)c1ccco1
EC50 [20]: 6.73 µM (active) | IC50 [5]: > 80 µM (inactive) | EC50 [21]: 0.895 µM (active)
